Key:
[1] = (§1) The drug is tested on Z-022 corresponding to mouse gut metagenome with ENA study accession number: PRJEB37062 and ENA sample accession number: ERS12561821 for biotransformation under anaerobic condition. The drug concentrations were measured over 9 timepoints collected between 0 and 24 hours of incubation by liquid-chromatography-coupled mass spectrometry (LC–MS); conditions: 2 µM
[2] = as §1, with “WLS-027” for “Z-022”, “human” for “mouse”, “ERS12561744” for “ERS12561821”; conditions: 2 µM
[3] = human gut metagenome, 24 h, 2 µM
[4] = human gut metagenome, 24 h, 2 µM; remark: listed apart in the source
[5] = as §1, with “Z-004” for “Z-022”, “to” for “to mouse gut”, “ERS12561804” for “ERS12561821”; conditions: 2 µM
[6] = as §1, with “WLS-086” for “Z-022”, “human” for “mouse”, “ERS12561752” for “ERS12561821”; conditions: 2 µM
[7] = human gut metagenome, 24 h, 2 µM; remark: listed apart in the source
[8] = as §1, with “Z-026” for “Z-022”, “to” for “to mouse gut”, “ERS12561825” for “ERS12561821”; conditions: 2 µM
[9] = as §1, with “Z-024” for “Z-022”, “pig” for “mouse”, “ERS12561823” for “ERS12561821”; conditions: 2 µM
[10] = human gut metagenome, 24 h, 2 µM; remark: listed apart in the source
[11] = human gut metagenome, 24 h, 2 µM; remark: listed apart in the source
[12] = as §1, with “WLS-090” for “Z-022”, “human” for “mouse”, “ERS12561753” for “ERS12561821”; conditions: 2 µM
[13] = human gut metagenome, 24 h, 2 µM; remark: listed apart in the source
[14] = as §1, with “Z-009” for “Z-022”, “pig” for “mouse”, “ERS12561809” for “ERS12561821”; conditions: 2 µM
[15] = human gut metagenome, 24 h, 2 µM; remark: listed apart in the source
[16] = human gut metagenome, 24 h, 2 µM; remark: listed apart in the source
[17] = human gut metagenome, 24 h, 2 µM; remark: listed apart in the source
[18] = as §1, with “Z-001” for “Z-022”, “ERS12561801” for “ERS12561821”; conditions: 2 µM
[19] = as §1, with “Z-029” for “Z-022”, “rat” for “mouse”, “ERS12561828” for “ERS12561821”; conditions: 2 µM
[20] = as §1, with “WLS-370” for “Z-022”, “human” for “mouse”, “ERS12561793” for “ERS12561821”; conditions: 2 µM
Also: call rule not given here.

Bacterial Biotransformation [1] | Bacterial Biotransformation [2] | Bacterial Biotransformation [3] | Bacterial Biotransformation [4] | Bacterial Biotransformation [5] | Bacterial Biotransformation [6] | Bacterial Biotransformation [7] | Bacterial Biotransformation [8] | Bacterial Biotransformation [9] | Bacterial Biotransformation [10] | Bacterial Biotransformation [11] | Bacterial Biotransformation [12] | Bacterial Biotransformation [13] | Bacterial Biotransformation [14] | Bacterial Biotransformation [15] | Bacterial Biotransformation [16] | Bacterial Biotransformation [17] | Bacterial Biotransformation [18] | Bacterial Biotransformation [19] | Bacterial Biotransformation [20] | Compound
Compound NOT metabolized | Compound NOT metabolized | Compound NOT metabolized | Compound NOT metabolized | Compound NOT metabolized | Compound metabolized | Compound NOT metabolized | Compound NOT metabolized | Compound NOT metabolized | Compound metabolized | Compound NOT metabolized | Compound metabolized | Compound metabolized | Compound NOT metabolized | Compound NOT metabolized | Compound NOT metabolized | Compound metabolized | Compound NOT metabolized | Compound NOT metabolized | Compound metabolized | COc1cc2nc(N3CCN(C(=O)c4ccco4)CC3)nc(N)c2cc1OC [PRAZOSIN]
Compound NOT metabolized | Compound NOT metabolized | Compound NOT metabolized | Compound NOT metabolized | Compound NOT metabolized | Compound metabolized | Compound NOT metabolized | Compound NOT metabolized | Compound NOT metabolized | Compound metabolized | Compound NOT metabolized | Compound metabolized | Compound metabolized | Compound NOT metabolized | Compound NOT metabolized | Compound NOT metabolized | Compound metabolized | Compound NOT metabolized | Compound NOT metabolized | Compound NOT metabolized | CS(=O)(=O)O.OC(CCN1CCCCC1)(c1ccccc1)c1ccccc1 [PRIDINOL METHANESULFONATE]
Compound NOT metabolized | Compound metabolized | Compound metabolized | Compound NOT metabolized | Compound NOT metabolized | Compound metabolized | Compound NOT metabolized | Compound NOT metabolized | Compound metabolized | Compound NOT metabolized | Compound NOT metabolized | Compound metabolized | Compound metabolized | Compound NOT metabolized | Compound NOT metabolized | Compound NOT metabolized | Compound metabolized | Compound NOT metabolized | Compound NOT metabolized | Compound NOT metabolized | CC(CN1c2ccccc2Sc2ccccc21)N(C)C (stereo not given) [PROMETHAZINE]
Compound NOT metabolized | Compound metabolized | Compound NOT metabolized | Compound NOT metabolized | Compound metabolized | Compound metabolized | Compound NOT metabolized | Compound NOT metabolized | Compound metabolized | Compound metabolized | Compound NOT metabolized | Compound metabolized | Compound metabolized | Compound NOT metabolized | Compound NOT metabolized | Compound NOT metabolized | Compound metabolized | Compound NOT metabolized | Compound NOT metabolized | Compound metabolized | OCCOCCN1CCN(C2=Nc3ccccc3Sc3ccccc32)CC1 [QUETIAPINE]

— ChEMBL document CHEMBL5724914, “Linking interpersonal differences in gut microbiota composition and drug biotransformation activity” (2024)
